Data: US20080139608A1, “2,6,8, Trisubstituted 1-deazapurines and their different uses” (Universiteit Leiden, priority 2006, published 2008)

Columns and labels:
[1] = biological target: T1, human adenosine A1 receptor (Homo sapiens, UniProt P30542); test: Radioligand binding assay, displacement of specific [3H]DPCPX binding; settings: CHO cells expressing human adenosine A1 receptors; n = 3; read-out: A1 Ki ± SEM, displacement of specific [3H]DPCPX binding
T1 construct: expressed in transfected cells; host or cells: CHO cells
T1 sequence (P30542 1-326): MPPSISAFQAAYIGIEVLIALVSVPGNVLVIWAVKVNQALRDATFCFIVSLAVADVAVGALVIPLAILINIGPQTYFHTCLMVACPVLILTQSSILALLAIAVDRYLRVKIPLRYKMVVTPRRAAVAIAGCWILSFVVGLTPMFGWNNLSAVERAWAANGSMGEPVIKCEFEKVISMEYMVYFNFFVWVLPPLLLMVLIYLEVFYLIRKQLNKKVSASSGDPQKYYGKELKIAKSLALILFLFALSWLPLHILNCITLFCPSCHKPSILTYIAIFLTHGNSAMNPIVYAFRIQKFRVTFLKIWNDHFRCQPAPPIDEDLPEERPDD
Experimental: Radioligand Binding Studies [^3H]DPCPX was purchased from Amersham. All compounds made were tested in radioligand binding assays to determine their affinities at the human adenosine A1 receptor. The affinities at the A1 receptors were determined on CHO cells expressing the human receptors, using [^3H]DPCPX as the radioligand according to a previously described method.^11
Data Analysis Competition binding data were fit to a single-site binding model and plotted using the software package Prism (Graph Pad, San Diego, Calif., USA). The Cheng-Prusoff equation Ki=IC50/(1+[I]/Kd) was used to calculate Ki values, where Ki is the affinity constant for the competing ligand, [I] is the concentration of the free radioligand, and Kd is the affinity constant for the radioligand.

Row | Ki [1] [nM] | melting point [°C] | SMILES
1 | 2.45 ± 0.23 | – | CCCc1nc2c(-c3ccccc3)cc(-c3ccccc3)nc2[nH]1 [Compound 6, 2,6-Diphenyl-8-propyl-1-deazapurine]
2 | 0.9 ± 0.21 | – | c1ccc(-c2cc(-c3ccccc3)c3[nH]c(C4CCCCC4)nc3n2)cc1 [Compound 12, 2,6-Diphenyl-8-cyclohexyl-1-deazapurine]
3 | 0.61 ± 0.04 | – | CC(C)c1nc2nc(-c3ccccc3)cc(-c3ccccc3)c2[nH]1 [Compound 7, 2,6-Diphenyl-8-isopropyl-1-deazapurine]
4 | 0.62 ± 0.3 | – | c1ccc(-c2cc(-c3ccccc3)c3[nH]c(C4CCCC4)nc3n2)cc1 [Compound 11, 8-Cyclopentyl-2,6-diphenyl-1-deazapurine]
5 | – | 196 to 197 | CC(C)CCc1nc2nc(-c3ccccc3)cc(-c3ccccc3)c2[nH]1 [Compound 9, 2,6-Diphenyl-8-isopentyl-1-deazapurine]
